Results on three compounds are retold here after patent US20250073014A1, “METHODS, DEVICES AND SYSTEMS FOR TREATING NEOINTIMAL GROWTH” (priority 2022, published 2025).

The structures appear in SMILES notation. Read-outs that look alike come from different tables or passages of the source.

Data set [1] relates to cholesterol-induced atherosclerosis. To be noted: cited from earlier work.
Details of data set [2]: species or system Yorkshire swine. The settings on record: female, Yorkshire, pig, in vivo. As to the method:
Formulations: Two Different Formulations were Prepared: • 1. […] Sirolimus was encapsulated in gelatin nanoparticles (GNP).
An incision of 5-8 cm was made alongside the femoral (or carotid) artery, and surrounding muscle and perivascular fascia were bluntly dissected to expose the artery.
The HPLC facility isolated the paclitaxel in usual manner and sirolimus was isolated with an addition step of enzymatic digesting of the GNP with trypsin at 37° C. before the analysis of each of them by Liquid Chromatography with tandem mass spectrometry (LC-MS-MS). • 1. Paclitaxel on day 1 in both the arteries with the final concentration of 12 ng/g in the first artery and 5.2 ng/g in second artery was detected by LC-MS/MS. The solution that was evacuated after 5 min of the formulation in the test site was evaluated by LC-MS/MS to detect 15% (75 mg) of the initial concentration of injected paclitaxel solution. […] Only few nanograms were detected in 24 h and that could indicate that probably 100% DMSO as a carrier took away the paclitaxel from the site to other region of the leg muscles that were not evaluated.

Data set [3] is described as follows: Stability and solubility of rapamycin in DMSO and DMSO/saline. The settings on record: in DMSO at −20° C. The class given is physicochemical. The text has this:
The rapamycin solution in DMSO could be further diluted either in saline, PBS, or distilled water.
The best working solution is considered to be 50/50 DMSO/water i.e., 50% of the DMSO in solution. This could be envisioned valid if instead of saline blood is used.

Data set [4] can be described thus: Rapamycin delivery in isolated porcine carotid artery (LC-MS/MS of tissue and washings). The class given is in vitro ADME. As to the method:
Sirolimus/Rapamycin was analyzed using an LC-MS/MS system consisting of an Agilent 1290 (San Jose, CA, USA) coupled to electrospray ionization on a triple quadrupole mass spectrometer (Agilent 6460, San Jose, CA, USA) equipped with a turbo ion spray interface in negative ionization mode, and an Agilent LC 1200 Binary pump system (Agilent Technologies, Santa Clara, CA, USA). Ascomycin was used as an internal standard (IS). A Gemini 5 μm NX-C18 110 Å, LC Column polar-RP 80A column (50×2 mm, Phenomenex, Torrance, CA, USA) equipped with a Security Guard™ column (4.0 mm×3.0 mm) was utilized to optimally separate sirolimus and the internal standard from endogenous substances of porcine carotid artery. The mobile phase was a mixture of 20 mM ammonium acetate (A) and methanol (B). Sample separation was conducted using a flow rate of 0.2 mL/min and a 10-min gradient condition (0-1 min: 20% B, 1-6 min: 100% B, 6-7 min: 100% B, 7.1-10 min: 20% B). The injection volume was […] for calibration and carotid artery samples. The selected reaction monitoring transitions of m/z 912.5→371.2 and m/z 790.5→530.3 were applied for sirolimus and IS, respectively. Mass data were acquired using Analyst software version 1.5.2 (Applied Biosystems-SCIEX, Concord, ON, Canada). Data analysis was processed using SCIEX OS offline software version 1.6 (Applied Biosystems-SCIEX, Concord, ON, Canada).
Sirolimus/Rapamycin was dissolved in acetonitrile to prepare a stock solution (1 mg/mL) and including IS with 2 ng/μL and were gradually diluted by the serial dilution method using calibrated pipettes (2-20 μL, 10-100 μL and 100-1000 μL), in order to obtain working stock dilutions at decreasing concentrations ([…]). These solutions were used for the preparation of mass spectrometry optimization, calibration curve and quality control standards in DMSO and carotid artery homogenates. These stock solutions and stock dilutions were stored at −20° C., respectively.
Sirolimus/Rapamycin was dissolved in DMSO to prepare a final concentration of 100 mg/mL (stock solution) and stored at −80° C. The porcine carotid arteries were washed 5 times in PBS (1×) to remove all the blood and fluids, followed by cutting them into 40 mm length. The surface area (SA) of the artery was calculated to be 628 mm^2 (lateral SAcylinder=2πrh; π=3.14, r=2.5 mm, and h=40 mm). The Rapamycin solution was diluted in DMSO to prepare […] (2 μg/mm^2). One of the carotid arteries was tied at one end and then it was filled with 0.5 mL of Rapamycin solution ([Rapamycin]0=628 μg/mL) then the open end was tied. After a 5-minute treatment, the solution was drained out, then arteries were washed with 5×0.2 mL of PBS (1×) which was also collected for the analysis. A similar experiment was performed as a biological duplicate. The arteries and the washings were then analyzed for the presence of Sirolimus/Rapamycin for determining the amount that was absorbed by the tissues compared to the amount that was washed out for use as a model.
Treated and untreated porcine carotid artery segments (100 mg, 2 mm) were shredded in methanol with a surgical blade and transferred to a 2 ml tube with a total volume of 1 ml methanol and 100 μL of internal standard (1 ng/ml). This tube contained garnet beads/shards for homogenizing tissue. Then a Qiagen Tissue Lyser LT was used to beat the artery shreds at 50 Hz for 10 minutes. The supernatant was dried down completely under a gentle stream of nitrogen using a nitrogen evaporator. The samples were resuspended in 100 μL of DMSO and placed in inserted universal autosampler vials prior to analysis.

On to `C[S+](C)[O-]` [DMSO, dimethyl sulfoxide], for which, in data set [1], the “Food intake of rabbits on the atherogenic diet” value is recorded as “not suppressed”. Further, the “Inhibition of aortic lesions” value in data set [1] (rabbits on atherogenic diet, 2% (dose, 1.5 g/kg) DMSO) was “about 50%”. In data set [1] (rabbits on atherogenic diet, 4 (3.5 g/kg), 5 (5.5 g/kg) and 6% (9.1 g/kg) DMSO), the Aortic lesions result is “virtually absent in the majority of rabbits”.
As to `CC(=O)O[C@H]1C(=O)[C@@]2(C)[C@H]([C@H](OC(=O)c3ccccc3)[C@]3(O)C[C@H](OC(=O)[C@H](O)[C@@H](NC(=O)c4ccccc4)c4ccccc4)C(C)=C1C3(C)C)[C@]1(OC(C)=O)CO[C@@H]1C[C@@H]2O` [Paclitaxel], in data set [2], the “Drug in solution evacuated after 5 min, % of the initial concentration” value is reported as 15% and the “Drug in solution evacuated after 5 min, amount” value is listed as 75 mg. For the same compound, in data set [2] (5 min), the “Absorbed by the tissue, %” value is 85% and the “Absorbed by the tissue, amount” value came out at 425 mg. For the same compound, the “Adverse reaction (edema)” value (day 7 animal) is recorded as “no edema was observed”. Under “day 14 animal”, the “Adverse reaction (edema)” value was “Same lack of reaction was observed”. The “Findings around the site of delivery when sutures were opened” value (in vivo) is “a lot of dead tissues and blood clots”. Further, the “Adverse reaction on injected leg (edema)” value (t=24 h animal) is “severe edema”.
For `CO[C@H]1C[C@@H]2CC[C@@H](C)[C@@](O)(O2)C(=O)C(=O)N2CCCC[C@H]2C(=O)O[C@H]([C@H](C)C[C@@H]2CC[C@@H](O)[C@H](OC)C2)CC(=O)[C@H](C)/C=C(\C)[C@@H](O)[C@@H](OC)C(=O)[C@H](C)C[C@H](C)/C=C/C=C/C=C/1C` [Rapamycin], the “Stability of rapamycin in DMSO” value in data set [3] is on record as “many months”. Besides, the “% of total drug in 2 mm of artery” value in data set [4] (5-minute treatment, rapamycin in DMSO) was 30.13%. For the same compound, in data set [4] (PBS washings after 5-minute treatment), the “% of total drug in washings (40 mm of artery)” value amounted to 0.5%. For the same compound, in data set [4] (Total Dose 220 ug), the Delivery efficiency is recorded as 99.55%; the “Lost in Blood stream (washed out)” value was found to be 1 µg; the Remaining in tissue came out at 68.75 µg; the “Remaining in tissue, % of the dose” value was 30.13 % of the dose.
